Assay results published in patent US9216942B2, “Compounds and uses thereof for treating inflammation and modulating immune responses” (PURAPHARM COMPANY LIMITED, priority 2012, dated 2015).

Experiments:
[1] = tested on: LPS-induced TNF-α production; test: Inhibition of LPS-induced TNF-α production in PBMac (ELISA); assay type: cell-based, Human; conditions: for inhibition of LPS-induced TNF-α protein production: PBMac pre-incubated with compound 18 h, then 10 ng/ml LPS for 24 h, ELISA of supernatant, mean±S.D., compound concentration not given (25 and 50 ug/ml tested)
Description: FIGS. 2 (A-C) show the inhibition of LPS-induced TNF-α production by Compound A1, Compound A2 and Cim A. PBMac cells are incubated with (A) 25 and 50 ug/ml A1 or (B) 25 and 50 ug/ml A2 or (C) 25 and 50 ug/ml Cim A for 18 h prior to the addition of 10 ng/ml LPS for another 24 h. The culture supernatants are collected and assayed for TNF-α production by enzyme-linked immunosorbent assay (ELISA). The results shown are the mean values±standard derivation (S.D.) of at least three independent experiments, with cells obtained from different donors. * P<0.05, ** P<0.01 compared with the control.
Endotoxin (lipopolysachamide, LPS) from E. coli was purchased from Sigma and used as an inducer of TNF-α expression. Dexamethasone (Sigma) was used as a control drug to inhibit the LPS induction of TNF-α.
(§1) Human peripheral blood monocytic cells (PBMC) were isolated from the buffy coat of healthy donor blood supplied by Hong Kong Red Cross by Ficoll-Paque (Amersham Pharmacia Biotech, Piscataway, N.J.) density gradient centrifugation as described in our previous reports. In brief, the buffy coat was spun at 3000 rotations per min (rpm) for 15 min to separate the blood cells and the plasma. The heat inactivated serum was filtered for future use.
(§2) The cell layer was diluted with phosphate buffered saline (PBS) in a ratio of 1:1. The diluted cells were overlaid on Ficoll-Paque slowly and centrifuged at 2300 rpm for 20 min for separation of mononuclear cells from erythrocytes. The mononuclear cell layer was removed and washed with RPMI 1640 medium until the supernatant was clear.
(§3) The cells were finally resuspended in RPMI 1640 medium supplemented with 5% autologous serum and cultured for 1 hr. The non-adherent cells were removed afterwards and the remaining adherent cells were further incubated for another 24 hr at 37° C. in 5% carbon dioxide (CO2).
(§4) The adherent monocytic cells were detached and seeded onto tissue culture plates and incubated for another 7-14 days in order to differentiate the primary blood monocytic cells to primary blood macrophages (PBMac).
Culture supernatants of the LPS-treated PBMac, with or without pretreatment of Cim A, Compound A1 or Compound A2, were collected at different time intervals and stored at −70° C. The levels of the secreted TNF-α were measured by ELISA kits specific for the cytokine (R&D system, Minneapolis, Minn.).

[2] = tested on: PBMac; test: MTT cytotoxicity assay on PBMac; assay type: cell-based, Human; conditions: 25-75 ug/ml, time course of 48 h
Description: Incubation of PBMac cells with the compounds at various concentrations produces no significant difference in the metabolic activities of the cells, when compared to control. Cytotoxic effects of Compounds A1, A2 and Cim A (25-75 ug/ml) on PBMac are determined by MTT (3-[4,5-dimethylthiazol-2-yl]-2,5-di-phenyltetrazolim bromide) assays over a time course of 48 h.
as §1, §2, §3, §4

SMILES	inhibition of LPS-induced TNF-α protein production [1] [%]	cytotoxic effects (MTT, metabolic activity of cells vs control) [2]	activity in inhibiting LPS-induced TNF-α production, higher than that of Cim A ([1]; compound at 50 μg/ml, relative to Cim A) [%]
COc1ccc(/C=C/C(=O)OCC(=O)Cc2ccc(O)c(O)c2)cc1O [Cim A, Cimiracemate A, reference compound]	50±19	almost no cytotoxic effects	
O=C(COC(=O)/C=C/c1ccc(O)c(O)c1)Cc1cccc(O)c1 [Compound A1]	26±15	almost no cytotoxic effects	
COc1ccc(/C=C/C(=O)OCC(=O)Cc2ccc(O)c(O)c2)cc1 [Compound A2]	67±10	almost no cytotoxic effects	34
